Among the data in US10093611B2, “Benzocycloalkenes as antifungal agents” (Bayer Intellectual Property GmbH, priority 2010, dated 2018) are Efficacy values, retold here.

This assay deals with Sphaerotheca fuliginea. As to the kind of experiment: In vivo preventive test on Sphaerotheca fuliginea (cucumbers). To be noted: 100 ppm of active ingredient, evaluated 7 days after inoculation. As to the method: EXAMPLE H: IN VIVO PREVENTIVE TEST ON SPHAEROTHECA FULIGINEA (CUCUMBERS) Solvent: 24.5 parts by weight of acetone • 24.5 parts by weight of N,N-dimethylacetamide Emulsifier: 1 part by weight of alkylaryl polyglycol ether To produce a suitable preparation of active compound, 1 part by weight of active compound is mixed with the stated amounts of solvent and emulsifier, and the concentrate is diluted with water to the desired concentration. To test for protect activity, young plants are sprayed with the preparation of active compound at the stated rate of application. After the spray coating has dried on, the plants are inoculated with an aqueous spore suspension of Sphaerotheca fuliginea. The plants are then placed in a greenhouse at approximately 23° C. and a relative atmospheric humidity of approximately 70%. The test is evaluated 7 days after the inoculation. 0% means an efficacy which corresponds to that of the untreated control, while an efficacy of 100% means that no disease is observed. Under these conditions, high (at least 90%) to total protection is observed at a dose of 100 ppm of active ingredient with the following compounds from table H: Under the same conditions, high protection (greater than 80%) is observed at a dose of 500 ppm of active ingredient with compound 7, whereas poor protection (less than 20%) is observed with the isosteric analogue compound CMP2 claimed in WO-2009/016218 as in table H2.
With `CC(C1Cc2ccccc2C1)N(C(=O)c1cn(C)nc1C(F)F)C1CC1` (centres unmarked) [Example 13], the Efficacy stood at 95%. In the case of `Cc1nn(C)c(F)c1C(=O)N(C1CC1)C(C)C1Cc2ccccc2C1` (centres unmarked) [Example 11], the Efficacy is recorded as 92%. As to `CC(C1Cc2ccccc2C1)N(C(=O)c1c(C(F)F)nn(C)c1F)C1CC1` (centres unmarked) [Example 14, N-cyclopropyl-3-(difluoromethyl)-N-[1-(indan-2-yl)ethyl]-5-fluoro-1-methyl-1H-pyrazole-4-carboxamide], the Efficacy turned out to be 100%. Turning to `CCc1nn(C)c(F)c1C(=O)N(C1CC1)C(C)C1Cc2ccccc2C1` (centres unmarked) [Example 12], the Efficacy is listed as 95%. `CC(C1CCc2ccccc2C1)N(C(=O)c1c(C(F)F)nn(C)c1F)C1CC1` (centres unmarked) [Example 16] showed an Efficacy of 100%.
